Test results as given in paper PMC6201879, “N-substituted phenylbenzamides of the niclosamide chemotype attenuate obesity related changes in high fat diet fed mice” (PLoS ONE, 2018).
Where two headings read alike, the source gives them in different places.

What was measured:
[1] = tested on: Salmonella typhimurium TA98; assay: Ames assay, strain TA98; conditions: for Mean Revertant Colony Counts TA98 SP9+: with S9; for Mean Revertant Colony Counts TA98 S9-: without S9
[2] = Metabolic stability in mouse liver microsomes; assay type: in vitro ADME; conditions: 60 min
Protocol: (§1) Three experiments were performed with 1) 0.5mg/ml microsomes and 1mM NADPH, 2) 0.5mg/ml microsomes without NADPH and 3) 0.5mg/ml heat inactivated microsomes without NADPH in 100mM phosphate buffer, containing 5mM magnesium chloride. […] At the indicated time points, 50μl samples were removed and stopped by addition of 4 volumes of cold acetonitrile with internal standards, 100nM alprazolam, 200nM labetalol and 2μM ketoprofen. The samples were centrifuged at 3,220 g for 40 minutes and aliquots of 100μl were subsequently diluted with 100μl of ultra-pure water and analyzed by LC/MS/MS using a (Shimadzu corporation) LC system coupled to a Shimadzu Triple Quad 5500 mass spectrometer with an ESI interface. The LC system used a Waters XSelect HSS T3 C18, 2.5μm, 2.1 x 50 mm column eluted with one of two methods using mobile phases A (water, 0.1% formic acid) and B (acetonitrile, 0.1% formic acid). […] The Shimadzu Triple Quad 5500 MS was operated with the following parameters: Ion source: Turbo spray; Ionization mode: ESI; Scan type: MRM; Collision gas: 10 L/min; Curtain gas: 30 L/min; Nebulize gas: 50 L/min; Auxiliary gas: 50 L/min; Temperature: 500°C; Ionspray voltage: +5500 V (positive MRM). All experiments were performed in duplicate. Data were analyzed using Microsoft excel, and peak areas were determined from extracted ion chromatograms.

[3] = tested on: HEK293 cells stably transduced with the human OCT3 transporter; assay: Cellular oxygen consumption rate (OCR), MitoXpress Xtra; assay type: cell-based; conditions: HEK293 cells expressing human OCT3; compared to DMSO control; 2 hours
How it was run: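 HEK293 cells stably expressing human OCT3, treated with four compound concentrations; oxygen consumption followed by MitoXpress Xtra TR-F lifetime (340/650 nm) every 2 min for 2 h. Lifetime slope from the linear portion taken as OCR; FCCP (1 μM) as stimulated control, differences versus DMSO by t-test.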

[4] = Metabolic stability in human liver microsomes; assay type: in vitro ADME
Protocol: as §1

[5] = tested on: Salmonella typhimurium TA100; conditions: for Mean Revertant Colony Counts TA-100 SP9+: with S9; for Mean Revertant Colony Counts TA-100 S9-: without S9
[6] = Pharmacokinetic profile in Sprague Dawley rats (IV and PO); assay type: in vivo; conditions: Mean + SD (n = 3)
Protocol: To evaluate the pharmacokinetic profile by oral (PO) and intravenous (IV) administration routes we used 6 to 8-week old Sprague Dawley rats weighing approximately 200-330g (n = 3 per study group). Compounds were administered at 1mg/kg in 5% Cremophor EL and 20% PEG400 in water for IV and 5mg/kg in PBS for PO. All dose formulation was performed at room temperature. Animals were fasted overnight prior to dosing and were re-fed approximately 4 hours after dosing. For PO, 0.2ml of blood was collected pre- and 0.5, 1, 2, 4 8 12 and 24-hours after drug delivery and transferred to EDTA-K2 BD Vacutainer plastic blood collection tubes. IV samples were collected pre-injection and 0.08, 0.25, 0.5, 1, 2, 4, 8, 12, 24-hours post injection. Blood samples were centrifuged at 2,000 g for 5 minutes at 4°C to obtain plasma. Plasma samples were stored at -75±15°C prior to analysis and then thawed and analyzed by LC-MS/MS method and pharmacokinetic calculations were performed using WinNolin (Phoenix, version 6.4). For IV administration: T1/2, C0, AUClast, AUCinf, MRT, Cl, Vss, and number of points for regression were determined. For PO administration: T1/2, Cmax, Tmax, AUCinf, AUClast, F(0-∞) %, and number of points for regression were determined. Data are reported as mean and standard deviation.

[7] = any concentration tested, vs negative control
[8] = 0.5mg/ml microsomes and 1mM NADPH
[9] = 0.5mg/ml microsomes without NADPH
[10] = heat inactivated microsomes without NADPH

In the case of `CC(C)(C)c1ccc(O)c(C(=O)Nc2ccc(C(=O)O)cc2Cl)c1` [Compound 500200, 4-[(5-tert-butyl-2-hydroxybenzene)amido]-3-chlorobenzoic acid], the “Mean Revertant Colony Counts TA98 SP9+” value ([1]; 1.5 ug/Well) is reported as 7.7, the “Mean Revertant Colony Counts TA98 S9-” value ([1]; 1.5 ug/Well) is reported as 9.0 and the “Mean Revertant Colony Counts TA98 SP9+” value ([1]; 4 ug/Well) is reported as 6.3. The “Mean Revertant Colony Counts TA98 S9-” value ([1]; 4 ug/Well) was 12.0, the “Mean Revertant Colony Counts TA98 SP9+” value ([1]; 10 ug/Well) was 9.0 and the “Mean Revertant Colony Counts TA98 S9-” value ([1]; 10 ug/Well) was 8.7. The “Mean Revertant Colony Counts TA98 SP9+” value ([1]; 25 ug/Well) was 7.3, the “Mean Revertant Colony Counts TA98 S9-” value ([1]; 25 ug/Well) was 9.0 and the “Mean Revertant Colony Counts TA98 SP9+” value ([1]; 64 ug/Well) was 9.0. The “Mean Revertant Colony Counts TA98 S9-” value ([1]; 64 ug/Well) was 7.7, the “Mean Revertant Colony Counts TA98 SP9+” value ([1]; 160 ug/Well) was 11.0 and the “Mean Revertant Colony Counts TA98 S9-” value ([1]; 160 ug/Well) was 5.0. The “Mean Revertant Colony Counts TA98 SP9+” value ([1]; 400 ug/Well) was 7.0, the “Mean Revertant Colony Counts TA98 S9-” value ([1]; 400 ug/Well) was 9.7 and the “Mean Revertant Colony Counts TA98 SP9+” value ([1]; 1000 ug/Well) was 4.3. For the same molecule, the “Mean Revertant Colony Counts TA98 S9-” value ([1]; 1000 ug/Well) was 4.3, the “fold increase in the mean number of revertant colonies, TA98” value [1, 7] was under 2 fold and the “Remaining Percentage of 60 min (%), Mouse, Tested Sample” value [2, 8] was 101.2%. The “Remaining Percentage of 60 min (%), Mouse, Negative Control” value [2, 9] was 111.5%, the “Remaining Percentage of 60 min (%), Mouse, Heat-inactivated Control” value [2, 10] was 102.7% and the “change in respiration / oxygen consumption rate (OCR)” value [3] was “no change in respiration”. For the same molecule, the “Remaining Percentage of 60 min (%), Human, Tested Sample” value [4, 8] was 84.5%, the “Remaining Percentage of 60 min (%), Human, Negative Control” value [4, 9] was 110.2% and the “Remaining Percentage of 60 min (%), Human, Heat-inactivated Control” value [4, 10] was 96.6%. The “Mean Revertant Colony Counts TA-100 SP9+” value ([5]; 1.5 ug/Well) was 18.7, the “Mean Revertant Colony Counts TA-100 S9-” value ([5]; 1.5 ug/Well) was 32.3 and the “Mean Revertant Colony Counts TA-100 SP9+” value ([5]; 4 ug/Well) was 19.7. For the same molecule, the “Mean Revertant Colony Counts TA-100 S9-” value ([5]; 4 ug/Well) was 25.7, the “Mean Revertant Colony Counts TA-100 SP9+” value ([5]; 10 ug/Well) was 22.0 and the “Mean Revertant Colony Counts TA-100 S9-” value ([5]; 10 ug/Well) was 26.7. The “Mean Revertant Colony Counts TA-100 SP9+” value ([5]; 25 ug/Well) was 22.0, the “Mean Revertant Colony Counts TA-100 S9-” value ([5]; 25 ug/Well) was 28.0 and the “Mean Revertant Colony Counts TA-100 SP9+” value ([5]; 64 ug/Well) was 20.3. The “Mean Revertant Colony Counts TA-100 S9-” value ([5]; 64 ug/Well) was 26.3, the “Mean Revertant Colony Counts TA-100 SP9+” value ([5]; 160 ug/Well) was 27.7 and the “Mean Revertant Colony Counts TA-100 S9-” value ([5]; 160 ug/Well) was 24.0. The “Mean Revertant Colony Counts TA-100 SP9+” value ([5]; 400 ug/Well) was 18.3, the “Mean Revertant Colony Counts TA-100 S9-” value ([5]; 400 ug/Well) was 29.7 and the “Mean Revertant Colony Counts TA-100 SP9+” value ([5]; 1000 ug/Well) was 8.0. The “Mean Revertant Colony Counts TA-100 S9-” value ([5]; 1000 ug/Well) was 16.3, the “fold increase in the mean number of revertant colonies, TA100” value [5, 7] was under 2 fold and the “AUC _%Extrap_obs (IV)” value ([6]; IV 1 mg/kg) was 0.13 +/- 0.016%. For the same molecule, the AUCl ast/D (IV) ([6]; IV 1 mg/kg) was 1940 ± 166 ng·kg·h/mL/mg, the “V ss_obs” value ([6]; IV 1 mg/kg) was 0.13 ± 0.020 L/kg and the “AUC _%Extrap_obs (PO)” value ([6]; PO 5 mg/kg in PBS) was 1.94 +/- 1.27%. It also gave an AUC last / D (PO) ([6]; PO 5 mg/kg in PBS) of 43.3 ± 25.3 ng·kg·h/mL/mg, a half-life ([6]; Sprague Dawley, rat, plasma, iv, 1 mg/kg, IV 1 mg/kg, read-out: T 1/2 (IV) (converted)) of 1.66 ± 0.48 h and a Cmax ([6]; Sprague Dawley, rat, plasma, po, 5 mg/kg, PO 5 mg/kg in PBS) of 50.8 ± 35.7 ng/mL. For the same molecule, the half-life ([6]; Sprague Dawley, rat, plasma, po, 5 mg/kg, PO 5 mg/kg in PBS, read-out: T 1/2 (PO) (converted)) was 1.51 ± 0.4 h, the bioavailability ([6]; Sprague Dawley, rat, plasma, po, 5 mg/kg, PO 5 mg/kg vs IV 1 mg/kg, read-out: F (oral bioavailability)) was 2.26 ± 1.29% and the C0 ([6]; rat, plasma, IV 1 mg/kg) was 13800 ± 2610 ng/mL. The AUC(0-inf) ([6]; rat, plasma, IV 1 mg/kg, read-out: AUC Inf (IV)) was 1940 ± 166 ng·h/mL, the AUC(0-t) ([6]; rat, plasma, IV 1 mg/kg, read-out: AUC last (IV)) was 1940 ± 166 ng·h/mL and the clearance ([6]; rat, plasma, IV 1 mg/kg, read-out: Cl_obs) was 8.63 ± 0.78 mL/min/kg. The MRT inf ([6]; rat, plasma, IV 1 mg/kg, read-out: MRT Inf_obs (IV)) was 0.26 ± 0.048 h, the Tmax ([6]; rat, plasma, PO 5 mg/kg in PBS) was 3.33 ± 1.15 h and the AUC(0-inf) ([6]; rat, plasma, PO 5 mg/kg in PBS, read-out: AUC Inf (PO)) was 220 ± 1250 ng·h/mL. The AUC(0-t) ([6]; rat, plasma, PO 5 mg/kg in PBS, read-out: AUC last (PO)) was 216 ± 127 ng·h/mL and the MRT inf ([6]; rat, plasma, PO 5 mg/kg in PBS, read-out: MRT Inf_obs (PO)) was 4.04 ± 0.68 h.
